Assay results taken from US20200206233A1 (INTEGRAL BIOSCIENCES PRIVATE LIMITED, priority 2018, published 2020).

Assays:
Type in all cases: biochemical
[1] = molecular target: T1, IDH1 mutant (R132H) (Homo sapiens, UniProt O75874, R132H); assay: Mutant IDH1-R132H Fluorescence Assay (Resazurin based); settings: 10 nM IDH1 R132H, 4 mM α-ketoglutarate, NADPH, 1.5 h at room temperature
T1 construct: purchased BPS Bioscience 71099-2
Procedure, shortened: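 Recombinant IDH1 R132H (10 nM) was run with α-ketoglutarate (4 mM) and NADPH ([…]) for 1.5 h at room temperature in Tris pH buffer with MgCl2, BSA and mercaptoethanol. Remaining NADPH was detected via diaphorase/resazurin fluorescence (ex 540/em 590 nm). IC50 came from a 4-parameter logistic fit.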

[2] = molecular target: T2, IDH1-WT (Homo sapiens, UniProt O75874); assay: IDH1-WT Fluorescence Assay (Resazurin based); settings: 1 nM IDH1-WT, 200 μM isocitrate, 15 μM NADP+, 30 min at room temperature
T2 construct: purchased BPS Bioscience 71075-2
Method: IC50 values of compounds against IDH1-WT was determined by Resazurin based Fluorescence assay. Assays were performed in Buffer (50 mM Tris HCl, 10 mM MgCl2, 0.03% BSA, 2 mM ß-mercaptoethanol) where total reaction volume was 25 μL in low-volume 96-well plates. Serially diluted compounds (3-fold) in DMSO (0.5% in final reaction) were incubated with cocktail of isocitrate (200 μM; Cat # I1252-1G, Sigma), NADP^+ (15 μM; Cat # N0505-500MG, Sigma) and buffer for 5 min, following addition of IDH1-WT enzyme (1 nM; Cat #71075-2, BPS Bioscience) and incubated in dark at room temperature for 30 min. After that, 12.5 μL detection solution containing Resazurin (60 μM; Cat #62758-13-8, Sigma) and Diaphorase (40 μg/ml; Cat # D2197-300UN, Sigma) in buffer was added and incubated for 15 min. Readings were taken using a Synergy Neo Plate reader (BioTek, Winooski) at single excitation of 540 nm and emission at 590 nm respectively.
The % (percent) activity of test samples was calculated as (Sample−Min)×100/(Max−Min). [Max: DMSO control, complete reaction with enzyme with DMSO and Min: No enzyme with DMSO]. Percent inhibition (100−% activity) was fitted to the “four-parameter logistic model” in XLfit for determination of IC50 values.

[3] = molecular target: T3, IDH2 mutant (R140Q) (Homo sapiens, UniProt P48735, R140Q); assay: Mutant IDH2-R140Q Fluorescence Assay (Resazurin based); settings: 5 nM IDH2 R140Q, 4 hr pre-incubation, 1 mM α-ketoglutarate, 5 μM NADPH, 2 h
T3 construct: purchased BPS Bioscience 71100-2
T3 sequence (P48735 40-452 R140Q): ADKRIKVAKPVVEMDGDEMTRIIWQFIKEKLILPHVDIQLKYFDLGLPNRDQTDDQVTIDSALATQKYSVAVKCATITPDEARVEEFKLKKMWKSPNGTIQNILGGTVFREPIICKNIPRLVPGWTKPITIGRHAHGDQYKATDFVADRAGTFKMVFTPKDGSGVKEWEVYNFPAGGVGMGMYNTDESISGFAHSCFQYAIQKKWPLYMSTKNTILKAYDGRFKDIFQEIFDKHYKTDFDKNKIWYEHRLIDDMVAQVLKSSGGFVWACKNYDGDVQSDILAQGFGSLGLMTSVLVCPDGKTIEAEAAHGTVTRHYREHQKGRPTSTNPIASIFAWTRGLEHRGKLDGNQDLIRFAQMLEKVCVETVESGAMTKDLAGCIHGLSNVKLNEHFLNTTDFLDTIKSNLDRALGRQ
Method: IC50 values of compounds against IDH2 mutant (R140Q) were determined by Resazurin based Fluorescence assay. Assay was performed in Buffer (25 mM Tris HCl, 150 mM NaCl, 10 mM MgCl2, 0.03% BSA, 2 mM 1-mercaptoethanol) where total reaction volume was 12.5 μL in low-volume 384-well plates (Cat #4511, Corning). Serially diluted compounds (3-fold) were pre-incubated with IDH2 R140Q mutant enzyme (5 nM; Cat #71100-2, BPS Bioscience) for 4 hr at RT (25° C.) followed by addition of cocktail of α-ketoglutarate (1 mM; Cat #75892-25G, Sigma), and NADPH (5 μM; Cat # N1630-100MG, Sigma) with buffer in dark at room temperature for 2 h. After 2 h incubation, 6.25 μL detection solution containing Resazurin (30 μM; (Cat #62758-13-8, Sigma) and Diaphorase (40 ug/ml; Cat # D2197-300UN, Sigma) in buffer was added and incubated for 15 min. Readings were taken in a Synergy Neo Plate reader (BioTek, Winooski) at single excitation of 540 nm and emission at 590 nm respectively.
The % activity of test samples was calculated as (Sample−Min)×100/(Max−Min). [Max: DMSO control, complete reaction with enzyme with DMSO and Min: No enzyme with DMSO]. Percent inhibition (100−% activity) was fitted to the “four-parameter logistic model” in XLfit for determination of IC50 values.

T1 sequence (O75874 whole entry R132H): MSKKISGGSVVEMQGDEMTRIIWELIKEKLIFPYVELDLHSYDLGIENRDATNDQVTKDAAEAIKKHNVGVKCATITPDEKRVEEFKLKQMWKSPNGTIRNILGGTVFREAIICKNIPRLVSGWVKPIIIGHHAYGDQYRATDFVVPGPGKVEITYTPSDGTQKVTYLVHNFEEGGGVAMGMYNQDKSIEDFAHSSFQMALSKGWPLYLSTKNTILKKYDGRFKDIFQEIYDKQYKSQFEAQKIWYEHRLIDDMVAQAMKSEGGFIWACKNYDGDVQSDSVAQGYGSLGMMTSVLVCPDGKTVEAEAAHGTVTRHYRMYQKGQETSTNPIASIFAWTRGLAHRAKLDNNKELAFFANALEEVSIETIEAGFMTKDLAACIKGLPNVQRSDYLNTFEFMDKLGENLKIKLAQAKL
T2 sequence (O75874 whole entry): as the sequence (O75874 whole entry R132H) above, with H132R counted along it

SMILES	IC50 [1] [µM]	IC50 [2] [µM]	IC50 [3] [µM]
CC[C@H]1COC(=O)N1c1nc(C)nc(N[C@@H](C)c2ccc(Oc3ccc(F)cc3)cc2)n1 [Compound 1.58, (S)-4-ethyl-3-(4-((S)-1-(4-(4-fluorophenoxy)phenyl)ethylamino)-6-methyl-1,3,5-triazin-2-yl)oxazolidin-2-one]	0.308	> 50	> 50
Cc1cc(-c2ccc([C@H](C)Nc3ncnc(N4C(=O)OC[C@@H]4C(C)C)n3)nc2)ccc1F [Compound 1.3, (S)-3-(4-((S)-1-(5-(4-fluoro-3-methylphenyl)pyridin-2-yl)ethylamino)-1,3,5-triazin-2-yl)-4-isopropyloxazolidin-2-one]	0.83	> 30	> 30
Cc1cc([C@H](C)Nc2ncnc(N3C(=O)OC[C@@H]3C(C)C)n2)ncc1-c1ccnc(C(F)(F)F)c1 [Compound 1.21, (S)-4-isopropyl-3-(4-((S)-1-(4-methyl-2′-(trifluoromethyl)-3,4′-bipyridin-6-yl)ethylamino)-1,3,5-triazin-2-yl)oxazolidin-2-one]	1.4	> 50	> 50
CC[C@H]1COC(=O)N1c1nc(C)nc(N[C@@H](C)c2ccc(Oc3ccccc3)c(-c3ccccc3)c2)n1 [Compound 1.82, (S)-4-ethyl-3-(4-methyl-6-((S)-1-(6-phenoxybiphenyl-3-yl)ethylamino)-1,3,5-triazin-2-yl)oxazolidin-2-one]	0.414	> 50	> 50
CC[C@H]1COC(=O)N1c1nc(C)nc(N[C@@H](C)c2cc3cc(Br)ccc3[nH]c2=O)n1 [Compound 1.66, (S)-3-(4-((S)-1-(6-bromo-2-oxo-1,2-dihydroquinolin-3-yl)ethylamino)-6-methyl-1,3,5-triazin-2-yl)-4-ethyloxazolidin-2-one]	0.328	> 50	> 50
CC[C@H]1COC(=O)N1c1nc(C)nc(N[C@@H](C)c2ccc(Oc3ccccc3)c(C)c2)n1 [Compound 1.86, (S)-4-ethyl-3-(4-methyl-6-((S)-1-(3-methyl-4-phenoxyphenyl)ethylamino)-1,3,5-triazin-2-yl)oxazolidin-2-one]	0.277	> 50	> 50
CC(C)[C@H]1COC(=O)N1c1ncnc(N[C@H](C)c2ccc(Cl)c(Cl)c2)n1 [Compound 1.6, (S)-3-(4-((R)-1-(3,4-dichlorophenyl)ethylamino)-1,3,5-triazin-2-yl)-4-isopropyloxazolidin-2-one]	> 30	> 30	
CC(C)[C@H]1COC(=O)N1c1ncnc(N[C@@H](C)c2ccc(-c3ccc(Cl)cc3)cn2)n1 [Compound 1.10, (S)-3-(4-((S)-1-(5-(4-chlorophenyl)pyridin-2-yl)ethylamino)-1,3,5-triazin-2-yl)-4-isopropyloxazolidin-2-one]	2.76	> 30	> 50
CC[C@H]1COC(=O)N1c1nc(C)nc(N[C@@H](C)c2ccc(Oc3cccnc3C(F)(F)F)cc2)n1 [Compound 1.81, (S)-4-ethyl-3-(4-methyl-6-((S)-1-(4-(2-(trifluoromethyl)pyridin-3-yloxy)phenyl)ethylamino)-1,3,5-triazin-2-yl)oxazolidin-2-one]	0.586	> 50	> 50
CC[C@H]1COC(=O)N1c1nc(C)nc(N[C@@H](C)c2ccc(Oc3ccccc3)cn2)n1 [Compound 1.75, (S)-4-ethyl-3-(4-methyl-6-((S)-1-(5-phenoxypyridin-2-yl)ethylamino)-1,3,5-triazin-2-yl)oxazolidin-2-one]	0.832	> 50	> 50
CC[C@H]1COC(=O)N1c1nc(N[C@@H](C)c2cn(-c3ccc(C(F)(F)F)cc3)cn2)nc(OC)n1 [Compound 1.41, (S)-4-ethyl-3-(4-methoxy-6-((S)-1-(1-(4-(trifluoromethyl)phenyl)-1H-imidazol-4-yl)ethylamino)-1,3,5-triazin-2-yl)oxazolidin-2-one]	0.707	> 50	> 50
CC(C)[C@H]1COC(=O)N1c1ncnc(N[C@@H](C)c2ccc(Oc3ccccc3)cc2)n1 [Compound 1.9, (S)-4-isopropyl-3-(4-((S)-1-(4-phenoxyphenyl)ethylamino)-1,3,5-triazin-2-yl)oxazolidin-2-one]	0.642	> 30	> 50
Cc1cc(-c2cnc([C@@H](C)Nc3ncnc(N4C(=O)OC[C@@H]4C(C)C)n3)nc2)ccc1F [Compound 1.2, (4S)-3-(4-{[(1R)-1-[5-(4-fluoro-3-methylphenyl)pyrimidin-2-yl]ethyl]amino}-1,3,5-triazin-2-yl)-4-(propan-2-yl)-1,3-oxazolidin-2-one]	> 50	> 50	
CC(C)[C@H]1COC(=O)N1c1ncnc(N[C@@H](C)c2ccc(-c3ccnc(C(F)(F)F)c3)cn2)n1 [Compound 1.11, (S)-4-isopropyl-3-(4-((S)-1-(2′-(trifluoromethyl)-3,4′-bipyridin-6-yl)ethylamino)-1,3,5-triazin-2-yl)oxazolidin-2-one]	11.4		> 50
CC(C)[C@H]1COC(=O)N1c1ncnc(N[C@@H](C)c2ccc(-c3ccc(F)cc3)cn2)n1 [Compound 1.12, (S)-3-(4-((S)-1-(5-(4-fluorophenyl)pyridin-2-yl)ethylamino)-1,3,5-triazin-2-yl)-4-isopropyloxazolidin-2-one]	9.01		> 50
CC(C)[C@H]1COC(=O)N1c1ncnc(N[C@@H](C)c2ccc(N3CCN(C)CC3)cn2)n1 [Compound 1.24, (S)-4-isopropyl-3-(4-((S)-1-(5-(4-methylpiperazin-1-yl)pyridin-2-yl)ethylamino)-1,3,5-triazin-2-yl)oxazolidin-2-one]	> 30		
CC[C@H]1COC(=O)N1c1nc(C)nc(N[C@H](C)c2cc3cc(Br)ccc3[nH]c2=O)n1 [Compound 1.67, (S)-3-(4-((R)-1-(6-bromo-2-oxo-1,2-dihydroquinolin-3-yl)ethylamino)-6-methyl-1,3,5-triazin-2-yl)-4-ethyloxazolidin-2-one]	12.3		
CC[C@H]1COC(=O)N1c1nc(C)nc(N[C@H](C)c2cc3ccccc3[nH]c2=O)n1 [Compound 1.46, (S)-4-ethyl-3-(4-methyl-6-((R)-1-(2-oxo-1,2-dihydroquinolin-3-yl)ethylamino)-1,3,5-triazin-2-yl) oxazolidin-2-one]	> 30		
CC[C@H]1COC(=O)N1c1nc(C)nc(N[C@@H](C)c2ccc(C(=O)Nc3ccccc3)cc2)n1 [Compound 1.103, 4-((S)-1-(4-((S)-4-ethyl-2-oxooxazolidin-3-yl)-6-methyl-1,3,5-triazin-2-ylamino)ethyl)-N-phenylbenzamide]	> 30		
